This is an account of results in US20220144839A1, “INDOLE AHR INHIBITORS AND USES THEREOF” (Ikena Oncology, Inc., priority 2018, published 2022).

The test deals with T1, AHR (UniProt P35869).
T1 sequence (P35869 1-848): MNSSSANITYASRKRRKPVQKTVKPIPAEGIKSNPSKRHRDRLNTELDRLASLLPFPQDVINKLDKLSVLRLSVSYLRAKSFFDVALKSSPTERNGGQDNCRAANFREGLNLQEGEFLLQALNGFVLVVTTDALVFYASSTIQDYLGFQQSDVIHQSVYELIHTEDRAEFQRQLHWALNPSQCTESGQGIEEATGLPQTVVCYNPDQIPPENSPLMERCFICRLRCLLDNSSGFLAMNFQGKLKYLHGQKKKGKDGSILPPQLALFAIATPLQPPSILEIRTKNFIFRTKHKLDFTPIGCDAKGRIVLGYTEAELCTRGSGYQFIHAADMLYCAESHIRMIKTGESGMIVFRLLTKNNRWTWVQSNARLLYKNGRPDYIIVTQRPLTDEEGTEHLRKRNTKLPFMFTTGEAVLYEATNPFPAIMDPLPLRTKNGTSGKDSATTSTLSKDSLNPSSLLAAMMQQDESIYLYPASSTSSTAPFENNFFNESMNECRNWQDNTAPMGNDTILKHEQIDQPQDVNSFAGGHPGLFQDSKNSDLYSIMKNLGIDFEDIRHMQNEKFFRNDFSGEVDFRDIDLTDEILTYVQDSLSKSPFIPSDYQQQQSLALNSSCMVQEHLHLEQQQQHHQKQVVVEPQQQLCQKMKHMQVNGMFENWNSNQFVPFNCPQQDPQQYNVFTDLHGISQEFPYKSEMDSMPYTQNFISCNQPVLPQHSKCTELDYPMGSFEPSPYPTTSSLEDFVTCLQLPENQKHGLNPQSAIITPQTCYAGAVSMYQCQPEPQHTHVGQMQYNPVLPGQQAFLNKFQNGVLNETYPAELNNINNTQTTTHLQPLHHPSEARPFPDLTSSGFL
Nature of the test: DRE-Luciferase Reporter Assay (Alternate Method), Example 1B. In kind it is cell-based. The settings on record: concentration which inhibits half of the luciferase activity induced by AHR activating ligand; DRE-luciferase reporter cell line. The method, then: AHR binds to Dioxin Responsive Elements (DRE) upstream of genes that it activates. One measure of AHR activity is activation of a reporter gene, such as luciferase, downstream of one or multiple DRE elements. Luciferase activity will reflect activation and inhibition of AHR in the cells expressing his reporter.
Murine Hepa1-6 or Hepa-1c1c7 or other murine cell line with a DRE-luciferase reporter either stably or transiently transfected were plated in media in plates (96-well, 384-well or other plates) and incubated overnight at 37° C. in a C02 incubator or compound and agonist were added at the time of plating. Likewise, human HepG2 or other human cell line with a DRE-luciferase reporter either stably or transiently transfected were plated in media in plates (96-well, 384-well or other plates) and incubated overnight at 37° C. in a C02 incubator or compound and agonist were added at the time of plating.
At the time that cells are plated or following incubation overnight, an AHR activating ligand, such as TCDD, kynurenine, ITE (2-(1H-indole-3-ylcarbonyl)-4-thiazolecarboxylic methyl ester), VAF347, BNF (beta-naphthoflavone), FICZ (6-formylindolo(3,2-b) carbazole or other AHR ligands, was added with or without AHR antagonist.
Cells were incubated for 4, 15 or 24 hours or another time point and then lysed for determination of luciferase activity as a read-out of the AHR activation or inhibition. Luciferase was measured with a commercial kit such as the Promega Luciferase kit or any kit or reagents that provide the luciferin substrate for measuring luciferase activity. The level of luciferase with only activating ligand added was the maximum signal while the luciferase with no ligand was the minimum signal. IC50 values were determined as the concentration which inhibits half of the luciferase activity.
Turning to `CC(C)c1cnn2c(N[C@@H]3CNc4ccccc4C3)nc(-c3cncc(F)c3)nc12` [Compound I-35a, (3S)—N-[2-(5-Fluoro-3-pyridyl)-8-isopropyl-pyrazolo[1,5-a][1,3,5]triazin-4-yl]-1,2,3,4-tetrahydroquinolin-3-amine], the IC50 was 1 to 1.5 µM.
Next, `CC(C)c1cnn2c(N[C@H]3CNc4ccccc4C3)nc(-c3cncc(F)c3)nc12` [Compound I-35b, (R)—N-(2-(5-Fluoropyridin-3-yl)-8-isopropylpyrazolo[1,5-a][1,3,5]triazin-4-yl)-1,2,3,4-tetrahydroquinolin-3-amine]: 0.5 to 1 µM; `CC(C)c1cnn2c(N[C@@H]3CCc4[nH]c(=O)ccc4C3)nc(-c3cncc(F)c3)nc12` [Compound I-36a, (R)-6-((2-(5-Fluoropyridin-3-yl)-8-isopropylpyrazolo[1,5-a][1,3,5]triazin-4-yl)amino)-5,6,7,8-tetrahydroquinolin-2(1H)-one]: more than 1.5 µM.
On to `CC(C)c1cnn2c(N[C@H]3CCc4[nH]c(=O)ccc4C3)nc(-c3cncc(F)c3)nc12` [Compound I-36b, (S)-6-((2-(5-Fluoropyridin-3-yl)-8-isopropylpyrazolo[1,5-a][1,3,5]triazin-4-yl)amino)-5,6,7,8-tetrahydroquinolin-2(1H)-one], for which the IC50 was more than 1.5 µM.
`CC(C)c1cnn2c(N[C@@H]3CNc4ncccc4C3)nc(-c3cncc(F)c3)nc12` [Compound I-37a, (3S)—N-[2-(5-Fluoro-3-pyridyl)-8-isopropyl-pyrazolo[1,5-a][1,3,5]triazin-4-yl]-1,2,3,4-tetrahydro-1,8-naphthyridin-3-amine] returned an IC50 of 0.5 to 1 µM.
Next, `CC(C)c1cnn2c(N[C@H]3CNc4ncccc4C3)nc(-c3cncc(F)c3)nc12` [Compound I-37b, (3R)—N-[2-(5-Fluoro-3-pyridyl)-8-isopropyl-pyrazolo[1,5-a][1,3,5]triazin-4-yl]-1,2,3,4-tetrahydro-1,8-naphthyridin-3-amine]: less than 0.5 µM.
Next, `Fc1cncc(-c2nc(N[C@@H]3CCc4[nH]c5ccccc5c4C3)n3ncc(N4CCOCC4)c3n2)c1` [Compound I-38, (3R)—N-[2-(5-Fluoro-3-pyridyl)-8-morpholino-pyrazolo[1,5-a][1,3,5]triazin-4-yl]-2,3,4,9-tetrahydro-1H-carbazol-3-amine]: less than 0.5 µM; `CC(C)c1cnn2c(NCCCCO)nc(-c3cncc(F)c3)nc12` [Compound I-39, 4-[[2-(5-Fluoro-3-pyridyl)-8-isopropyl-pyrazolo[1,5-a][1,3,5]triazin-4-yl]amino]butan-1-ol]: more than 1.5 µM; `CC(CO)CCNc1nc(-c2cncc(F)c2)nc2c(C(C)C)cnn12` (stereo not drawn) [Compound I-40, 4-[[2-(5-Fluoro-3-pyridyl)-8-isopropyl-pyrazolo[1,5-a][1,3,5]triazin-4-yl]amino]-2-methyl-butan-1-ol]: more than 1.5 µM.
Next, `O[C@H](c1cnn2c(N[C@@H]3CCc4[nH]c5ccccc5c4C3)nc(-c3cncc(F)c3)nc12)C(F)(F)F` [Compound I-41a, (1R)-2,2,2-Trifluoro-1-[2-(5-fluoro-3-pyridyl)-4-[[(3R)-2,3,4,9-tetrahydro-1H-carbazol-3-yl]amino]pyrazolo[1,5-a][1,3,5]triazin-8-yl]ethanol]: less than 0.5 µM.
The compound `O[C@@H](c1cnn2c(N[C@@H]3CCc4[nH]c5ccccc5c4C3)nc(-c3cncc(F)c3)nc12)C(F)(F)F` [Compound I-41b, (1S)-2,2,2-trifluoro-1-[2-(5-fluoro-3-pyridyl)-4-[[(3R)-2,3,4,9-tetrahydro-1H-carbazol-3-yl]amino]pyrazolo[1,5-a][1,3,5]triazin-8-yl]ethanol] returned an IC50 of less than 0.5 µM.
`C[C@H](O)c1cnc2c(N[C@@H]3CCc4[nH]c5ccccc5c4C3)nc(-c3cncc(F)c3)nn12` [Compound I-42a, (1S)-1-[2-(5-Fluoro-3-pyridyl)-4-[[(3R)-2,3,4,9-tetrahydro-1H-carbazol-3-yl]amino]imidazo[2,1-f][1,2,4]triazin-7-yl]ethanol] returned a concentration for half-maximal inhibition (IC50) of less than 0.5 µM.
`C[C@@H](O)c1cnc2c(N[C@@H]3CCc4[nH]c5ccccc5c4C3)nc(-c3cncc(F)c3)nn12` [Compound I-42b, (1R)-1-[2-(5-Fluoro-3-pyridyl)-4-[[(3R)-2,3,4,9-tetrahydro-1H-carbazol-3-yl]amino]imidazo[2,1-f][1,2,4]triazin-7-yl]ethanol] had an IC50 of less than 0.5 µM.
Next, `CC(C)c1cnn2c(NCCCO)nc(-c3cncc(F)c3)nc12` [Compound I-43, 3-[[2-(5-Fluoro-3-pyridyl)-8-isopropyl-pyrazolo[1,5-a][1,3,5]triazin-4-yl]amino]propan-1-ol]: more than 1.5 µM.
Compound `CC(C)c1cnn2c(N[C@H]3CC[C@H](O)CC3)nc(-c3cncc(F)c3)nc12` [Compound I-44a, 4-[[2-(5-Fluoro-3-pyridyl)-8-isopropyl-pyrazolo[1,5-a][1,3,5]triazin-4-yl]amino]cyclohexanol] came in with an IC50 of more than 1.5 µM.
Next, `CC(C)c1cnn2c(N[C@H]3CC[C@@H](O)CC3)nc(-c3cncc(F)c3)nc12` [Compound I-44b, 4-[[2-(5-Fluoro-3-pyridyl)-8-isopropyl-pyrazolo[1,5-a][1,3,5]triazin-4-yl]amino]cyclohexanol]: more than 1.5 µM.
Next, `CC(C)c1cnn2c(NCCNc3ccccn3)nc(-c3cncc(F)c3)nc12` [Compound I-45, N′-[2-(5-Fluoro-3-pyridyl)-8-isopropyl-pyrazolo[1,5-a][1,3,5]triazin-4-yl]-N-(2-pyridyl)ethane-1,2-diamine]: 1 to 1.5 µM.
With `CC(C)c1cnn2c(N[C@H]3CCc4[nH]c5ccccc5c4C3)nc(-c3cncc(F)c3)nc12` [Compound I-47, (3S)—N-[2-(5-Fluoro-3-pyridyl)-8-isopropyl-pyrazolo[1,5-a][1,3,5]triazin-4-yl]-2,3,4,9-tetrahydro-1H-carbazol-3-amine], the IC50 is less than 0.5 µM.
Next, `CC(C)c1cnn2c(N[C@@H]3CCc4ccccc4C3)nc(-c3cncc(F)c3)nc12` [Compound I-48a, 2-(5-Fluoro-3-pyridyl)-8-isopropyl-N-[(2R)-tetralin-2-yl]pyrazolo[1,5-a][1,3,5]triazin-4-amine]: more than 1.5 µM.
Next, `CC(C)c1cnn2c(N[C@H]3CCc4ccccc4C3)nc(-c3cncc(F)c3)nc12` [Compound I-48b, 2-(5-Fluoro-3-pyridyl)-8-isopropyl-N-[(2S)-tetralin-2-yl]pyrazolo[1,5-a][1,3,5]triazin-4-amine]: more than 1.5 µM; `CC(CO)CNc1nc(-c2cncc(F)c2)nc2c(C(C)C)cnn12` (stereo not drawn) [Compound I-49, 3-[[2-(5-Fluoro-3-pyridyl)-8-isopropyl-pyrazolo[1,5-a][1,3,5]triazin-4-yl]amino]-2-methyl-propan-1-ol]: more than 1.5 µM; `Fc1cncc(-c2nc(N[C@@H]3CCc4[nH]c5ccccc5c4C3)n3nc4c(c3n2)CNCC4)c1` [Compound I-50, 2-(5-Fluoro-3-pyridyl)-N-[(3R)-2,3,4,9-tetrahydro-1H-carbazol-3-yl]-7,8,9,10-tetrahydropyrido[2,3]pyrazolo[2,4-c][1,3,5]triazin-4-amine]: more than 1.5 µM.
Next, `CNc1cnn2c(N[C@@H]3CCc4[nH]c5ccccc5c4C3)nc(-c3cncc(F)c3)nc12` [Compound I-51, 2-(5-Fluoro-3-pyridyl)-N8-methyl-N4-[(3R)-2,3,4,9-tetrahydro-1H-carbazol-3-yl]pyrazolo[1,5-a][1,3,5]triazine-4,8-diamine]: less than 0.5 µM; `CN1CCN(c2cnn3c(N[C@@H]4CCc5[nH]c6ccccc6c5C4)nc(-c4cncc(F)c4)nc23)CC1` [Compound I-52, (3R)—N-[2-(5-Fluoro-3-pyridyl)-8-(4-methylpiperazin-1-yl)pyrazolo[1,5-a][1,3,5]triazin-4-yl]-2,3,4,9-tetrahydro-1H-carbazol-3-amine]: 0.5 to 1 µM.

By IC50 is commonly meant the midpoint of a concentration-inhibition curve. A higher IC50 goes with weaker potency in that assay.
